Some test systems named below: SNB-75 CNS; SF-539 CNS; BT-549 breast; OVCAR-4 ovarian; HCC-2998 colon; MCF7 breast; SK-MEL-28 melanoma; SK-MEL-2 melanoma; DU-145 prostate; K-562 leukemia.
Experiment in all cases: NCI tumour cell line growth inhibition, 48 h

Where “and” joins values, the source holds several entries; their conditions need not be identical. Equal entries are not always repeated.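 Test compounds were applied to cells in 96-well plates for 48 hours at 5 doses. GI50: concentration for 50% inhibition of growth. At the TGI there is no net growth.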 Bounds are passed on as bounds.

Take `C=C1C(=O)OC2CC1C(OC(C)=O)C/C(C)=C/CC/C(C)=C\CCC2(C)O` (stereo unspecified): the TGI was 29.7 µM and 24.3 µM in the test on SNB-75 CNS; 18.4 µM and 12.7 µM with SF-539 CNS; 15.5 µM and 5.35 µM in the test with BT-549 breast; 21 µM and 19.2 µM in the test on OVCAR-4 ovarian; 17.5 µM and 21.1 µM in the test with HCC-2998 colon; 16.2 µM and 26.3 µM in the test with MCF7 breast. Moreover, the TGI in the test with SK-MEL-28 melanoma is 11.2 µM and 15.7 µM; with SK-MEL-2 melanoma it was 22.5 µM and > 100 µM; in the test on DU-145 prostate, 14.6 µM and 23.1 µM. Also, the GI50 with BT-549 breast was 4.31 µM and 2.05 µM; in the test on SK-MEL-2 melanoma, 8.67 µM and 21.4 µM.

On to `O=c1[nH]c(F)nc2c1ncn2C1OC(CO)C(O)C1O` (stereo unspecified), for which the GI50 was more than 100 µM in the test with SNB-75 CNS; 23.9 µM in the test on SF-539 CNS; more than 100 µM in the test with BT-549 breast; more than 100 µM with K-562 leukemia; more than 100 µM in the test with HCC-2998 colon; more than 100 µM in the test on MCF7 breast. The GI50 with SK-MEL-28 melanoma and in the test on DU-145 prostate was more than 100 µM in each case. In addition, the TGI in the test with SNB-75 CNS was more than 100 µM; in the test with SF-539 CNS, 80.3 µM; in the test with BT-549 breast, more than 100 µM; in the test with K-562 leukemia, more than 100 µM; with HCC-2998 colon, more than 100 µM; in the test with MCF7 breast, more than 100 µM. Moreover, the TGI in the test on SK-MEL-28 melanoma and with DU-145 prostate was more than 100 µM throughout.

Take `CC(Cc1cccc2c1Nc1ccccc1S2)N(C)CCO` (stereo unspecified): the TGI in the test on SF-539 CNS, in the test with BT-549 breast, in the test with OVCAR-4 ovarian, in the test with K-562 leukemia, with HCC-2998 colon and in the test with MCF7 breast was more than 100 µM in each case. Besides, the TGI in the test on SK-MEL-28 melanoma and in the test with DU-145 prostate was more than 100 µM throughout.

As for `Cn1c(=O)c2[nH]c(CCCc3ccc([N+](=O)[O-])cc3)nc2n(C)c1=O`, the TGI in the test with SNB-75 CNS, in the test with SF-539 CNS, with BT-549 breast, in the test on OVCAR-4 ovarian, in the test on K-562 leukemia and in the test on MCF7 breast was more than 100 µM each time. Besides, the TGI in the test with SK-MEL-28 melanoma, with SK-MEL-2 melanoma and with DU-145 prostate was more than 100 µM throughout.

On to `COC(=O)[C@@H](C)C[C@H](Cc1ccccc1)NC(=O)c1csc([C@@H](C[C@H](C(C)C)N(C)C(=O)C2(NC(=O)[C@H]3CCCCN3C)CCC2)OC(C)=O)n1`, for which the GI50 in the test with SNB-75 CNS is 0.00351 µM and 0.00319 µM; with SF-539 CNS, 0.00784 µM and 0.00441 µM; in the test with BT-549 breast it was 0.0025 µM; in the test on K-562 leukemia, 0.00252 µM and 0.0025 µM; in the test on HCC-2998 colon, 0.00501 µM and 0.00628 µM; with MCF7 breast, 0.000508 µM and 0.0025 µM. The GI50 with SK-MEL-28 melanoma is 0.0307 µM and 0.00667 µM; in the test with DU-145 prostate it was 0.00351 µM and 0.0025 µM. Besides, the TGI in the test on SNB-75 CNS is more than 25 µM; in the test with SF-539 CNS, 0.0518 µM and 0.0137 µM; with BT-549 breast, 0.0157 µM; in the test on OVCAR-4 ovarian, more than 25 µM; with K-562 leukemia, more than 25 µM; in the test with HCC-2998 colon it was more than 25 µM. In addition, the TGI in the test with MCF7 breast, in the test on SK-MEL-28 melanoma and in the test on DU-145 prostate was more than 25 µM throughout.

`O=C(/C=C/c1nnc2n(Cc3ccccc3)c(=O)c3c4c(sc3n12)CCCC4)c1ccccc1`: the GI50 with SNB-75 CNS is 21.3 µM; with SF-539 CNS, more than 100 µM; in the test on K-562 leukemia, 0.902 µM and 0.199 µM; in the test with HCC-2998 colon, more than 100 µM; in the test on SK-MEL-2 melanoma it was 3.2 µM; in the test with DU-145 prostate, more than 100 µM. The TGI in the test on SNB-75 CNS is 91.2 µM; with SF-539 CNS, more than 100 µM; with K-562 leukemia, more than 100 µM; with HCC-2998 colon it was more than 100 µM; in the test with MCF7 breast it was more than 100 µM; in the test on DU-145 prostate, more than 100 µM.

On to `COc1cc(/C=C/C(=O)c2c(C)nc3ccccc3c2C)ccc1OCCCCOc1cc2c(cc1OC)C(=O)N1CCC[C@H]1C=N2`, for which the GI50 is 0.334 µM in the test with SNB-75 CNS; 0.55 µM in the test on SF-539 CNS; 0.188 µM in the test with BT-549 breast; 0.47 µM in the test with OVCAR-4 ovarian; 0.519 µM in the test with HCC-2998 colon; 0.238 µM in the test with MCF7 breast. The GI50 in the test on SK-MEL-28 melanoma is 0.214 µM; with SK-MEL-2 melanoma, 0.414 µM; in the test with DU-145 prostate it was 0.368 µM. Besides, the TGI worked out at 0.929 µM in the test with SNB-75 CNS; 1.54 µM in the test with SF-539 CNS; 0.482 µM in the test on BT-549 breast; 4.62 µM in the test with OVCAR-4 ovarian; 1.16 µM in the test with HCC-2998 colon; 0.975 µM in the test with MCF7 breast. The values for the TGI with SK-MEL-28 melanoma, in the test on SK-MEL-2 melanoma and in the test with DU-145 prostate were 0.647 µM, 0.978 µM and 1.13 µM, respectively.

As to `Cc1ccc(NC(=O)c2nc(S(C)(=O)=O)oc2-c2ccc(F)cc2)cc1Nc1ccc2ncn(C)c(=O)c2c1`, the GI50 in the test with SNB-75 CNS is 2.13 µM; in the test on SF-539 CNS, 1.65 µM; with BT-549 breast, 1.48 µM; in the test with HCC-2998 colon it was 2.54 µM; in the test on MCF7 breast, 1.9 µM; with SK-MEL-28 melanoma, 1.74 µM. Further, the GI50 was 1.59 µM in the test on SK-MEL-2 melanoma and 1.72 µM in the test on DU-145 prostate. In addition, the TGI was 5.65 µM in the test with SNB-75 CNS; 3.14 µM in the test with SF-539 CNS; 2.86 µM with BT-549 breast; 6.47 µM in the test with HCC-2998 colon; 4.43 µM in the test on MCF7 breast; 3.4 µM with SK-MEL-28 melanoma. Besides, the TGI in the test on SK-MEL-2 melanoma turned out to be 3.29 µM; with DU-145 prostate, 3.09 µM.

As to `O=C(O)CNCCc1ccccc1`, the TGI in the test with SNB-75 CNS, in the test with BT-549 breast, in the test on OVCAR-4 ovarian, in the test on K-562 leukemia, in the test with MCF7 breast and with SK-MEL-28 melanoma was more than 100 µM each time. Moreover, the TGI in the test on SK-MEL-2 melanoma and with DU-145 prostate was more than 100 µM throughout.

As for `N#Cc1c2ccccc2c2nnc3ccc(C(F)(F)F)cc3n12`, the GI50 is 47.6 µM in the test with SNB-75 CNS; 21 µM in the test with BT-549 breast; 97.9 µM in the test on OVCAR-4 ovarian; 59.9 µM in the test on K-562 leukemia; 27.6 µM with MCF7 breast; more than 100 µM with SK-MEL-28 melanoma. Further, the GI50 in the test on SK-MEL-2 melanoma is 23.5 µM; in the test with DU-145 prostate, 28 µM. Also, the TGI in the test with SNB-75 CNS is more than 100 µM; with BT-549 breast, 44.6 µM; in the test with OVCAR-4 ovarian, more than 100 µM; in the test on K-562 leukemia, more than 100 µM; in the test on MCF7 breast it was more than 100 µM; in the test on SK-MEL-28 melanoma it was more than 100 µM. Further, the figures for the TGI in the test with SK-MEL-2 melanoma and in the test on DU-145 prostate were 85.2 µM and more than 100 µM, respectively.

Source of the values: PubChem BioAssay (NCI).
